Molecules are shown by their SMILES. pKi: −log10 of the molar value.

The target of one assay is T1, Factor VIIa (Homo sapiens, UniProt P08709).
T1 construct: purchased Haemochrom Diagnostica GmbH (Essen, D)
T1 sequence (P08709 213-466 limits assumed): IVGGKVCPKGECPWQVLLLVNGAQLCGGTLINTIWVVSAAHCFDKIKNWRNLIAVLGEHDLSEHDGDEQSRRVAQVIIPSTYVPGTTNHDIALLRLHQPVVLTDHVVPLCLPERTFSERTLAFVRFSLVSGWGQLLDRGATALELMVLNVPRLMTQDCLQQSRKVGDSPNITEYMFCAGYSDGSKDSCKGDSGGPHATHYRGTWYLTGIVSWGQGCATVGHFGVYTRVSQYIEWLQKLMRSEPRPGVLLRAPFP
T1 sequence (P08709 61-212 partner limits assumed): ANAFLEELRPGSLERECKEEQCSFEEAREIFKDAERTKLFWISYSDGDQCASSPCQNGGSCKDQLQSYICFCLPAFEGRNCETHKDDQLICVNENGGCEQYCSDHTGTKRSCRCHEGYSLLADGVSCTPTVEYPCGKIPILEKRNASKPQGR
The assay can be described thus: Determination of Ki values, chromogenic substrate, Dixon evaluation: Factor VIIa. The following applies: 25° C., tris buffer pH 8.0, substrate CH3SO2-D-phe-Gly-Arg-pNA. The assay is classed as biochemical. The source says:
(§1) The inhibitors used here are the commercially available exemplary inhibitors Pefabloc tPA/Xa (2,7-bis(4-amidinobenzylidene)-cyclopeptanone-(1), Pentapharm Ltd. Basel, Switzerland), CJ-FXa (benzylsulphonyl-D-arginyl-glycyl-4-amidinobenzylamide, Haemochrom GmbH, Essen, Germany) and CJ-PK (benzylsulphonyl-D-seryl-carbobenzoxylsyl-4-amidinobenzylamide, Haemochrom GmbH, Essen, Germany). Research samples were available of DX-9065a ((+)-(2S)-2-[4-[[3S)-1-acetimidoyl-3-pyrrodinyl]oxy]phenyl]-3-[7-amidino-2-naphthyl]propanic acid, Daiichi Pharmaceutical Company Ltd., Tokyo, Japan), and Otamixaban (2-(R)-(3-carbamimidoylbenyzyl)-3-(R)-[4-(1-oxypyridin-4-yl)benzoylamino]-butyric acid-methylester, Sanofi-Aventis GmbH, Frankfurt, Germany), both of which are undergoing clinical tests. In order to examine the inhibitory action of these exemplarily used inhibitors on the blood coagulation factors plasma-kallikrein, VIIa, Xa, XIa and XIIa, the Ki values of the respective enzyme-inhibitor complexes were determined.
(§2) The enzymes were produced by Haemochrom Diagnostica GmbH (Essen, D) and were dissolved in 0.154 mol/l NaCl. The substrates (Pentapharm AG, Basel, CH) were dissolved in H2O and the inhibitor was dissolved in the above-mentioned tris buffer. The following substrates were used for the individual enzymes:
(§3) 200 μl of inhibitor solution were mixed with 25 μl of substrate for the determination and the reaction was started by the addition of 50 μl of enzyme. After a reaction time of 3-5 mins. 25 μl of acetic acid (50%) were added and the extinction was measured at 405 nm with a microplate reader (iEMS Reader MF 12401, Labsystems, Helsinki, Finland). The evaluation was carried out graphically according to Dixon (Biochem. J., 55, 170, 1953).
(§4) The enzymes were produced by Haemochrom Diagnostica GmbH (Essen, D), and only thrombin was manufactured in our own laboratory according to Walsmann (Pharmazie 23, 401-402, 1968). All the enzymes were dissolved in 0.154 mol/l NaCl. The substrates (Pentapharm AG, Basel, CH) were dissolved in H2O and the inhibitor was dissolved in the above-mentioned tris buffer. The following substrates were used for the individual enzymes:
(§5) 200 μl of inhibitor solution were mixed with 25 μl of substrate for the determination and the reaction was started by the addition of 50 μl of enzyme. After a reaction time of 3-5 mins. 25 μl of acetic acid (50%) were added and the extinction was measured at 405 nm with a microplate reader (iEMS Reader MF 1401, Labsystems, Helsinki, Finland). The evaluation was carried out graphically according to Dixon (Biochem. J., 55, 170, 1953).

The target of the next assay is T2, Factor XIIa (Homo sapiens, UniProt P00748).
T2 construct: purchased Haemochrom Diagnostica GmbH (Essen, D)
T2 sequence (P00748 373-615 limits assumed): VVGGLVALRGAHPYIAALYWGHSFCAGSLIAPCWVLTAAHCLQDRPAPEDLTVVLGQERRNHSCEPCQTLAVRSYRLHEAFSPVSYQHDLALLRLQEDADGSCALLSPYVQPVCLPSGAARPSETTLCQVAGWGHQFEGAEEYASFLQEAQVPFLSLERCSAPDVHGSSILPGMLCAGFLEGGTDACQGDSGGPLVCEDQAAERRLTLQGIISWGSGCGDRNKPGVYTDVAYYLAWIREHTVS
Nature of the assay: Determination of Ki values, chromogenic substrate, Dixon evaluation: Factor XIIa. The assay is classed as biochemical. The following applies: 25° C., tris buffer pH 8.0, substrate H-D-HHT-Gly-Arg-pNA.
Source text: as §1, §2, §3, §4, §5

Another assay relates to human vein blood. Nature of the assay: Storage of human vein blood after anticoagulation with inhibitor (F1+2 immunoassay). Particulars: 25° C. Here is the method: In the sense of the invention anticoagulation means that the re-formation of thrombin is inhibited in the sampled blood. According to the invention thrombin re-formation is inhibited when no more than 1 nM of thrombin is re-formed in the sampled blood. As described above, the activation of prothrombin to thrombin represents an essential step in the blood coagulation cascade. In this case the prothrombin fragment 1+2 (F1+2) is released in equivalent quantities. It is therefore possible to quantify the thrombin actually formed by determining the fragment produced, thus enabling the prothrombin fragment F1+2 to be used as an indirect marker of an activation of prothrombin to thrombin. The concentration of the prothrombin fragment F1+2 formed may be determined immunologically, for example, with commercial enzyme immunoassays (for example Enzygnost F1+2 micro, Dade Behring GmbH, Marburg).
According to the invention anticoagulation therefore means that no more than 1 nM of prothrombin fragment F1+2 is newly formed in the blood after its sampling. […] Without suitable treatment of the blood to prevent coagulation there is an increase in the concentration of the prothrombin fragment F1+2 in this example to well over 1.3 nM, within a few minutes, due to the plasmatic coagulation, i.e. the blood coagulates.
In this experiment it was determined how long human vein blood can be stored without the formation of thrombin or activation of thrombocytes.
For this purpose blood (9 parts) sampled from a patient was mixed with inhibitor solution (0.05 mM, 0.5 mM or 5 mM in physiological NaCl solution; 1 part). Some of the blood was stored at 25° C., the remainder in the refrigerator at 4° C. The quantity of thrombin formed was determined immunologically during storage based on the formation of the prothrombin fragment F1+2 (Enzygnost F1+2 micro, Dade Behring GmbH, Marburg). […] In this case it is irrelevant whether the blood samples were kept at room temperature (approx. 25° C.) or at 4° C.
For this purpose blood (9 parts) sampled from a patient was mixed with inhibitor solution (0.05 mM, 0.5 mM or 5 mM in physiological NaCl solution; 1 part) and stored at room temperature (about 22±2° C.). The quantity of thrombin formed was determined immunologically during storage based on the formation of the prothrombin fragment F1+2 (Enzygnost F1+2 micro, Dade Behring GmbH, Marburg). It was shown that BAPA′ is capable of keeping anticoagulated blood uncoagulated at a concentration in the blood of 500 μM or 50 μM for more than 48 hours (Table 4). At a concentration of 5 μM BAPA′ prevents coagulation for more than 8 hours.

What is called pKi is the negative decadic logarithm of the Ki, by convention in mol/L. Consider `COC(=O)[C@H](Cc1cccc(C(=N)N)c1)[C@@H](C)NC(=O)c1ccc(-c2cc[n+]([O-])cc2)cc1` (mixture of isomers) [Otamixaban, 2-(R)-(3-carbamimidoylbenyzyl)-3-(R)-[4-(1-oxypyridin-4-yl)benzoylamino]-butyric acid-methylester], for which the pKi at Factor VIIa is 4.72; on Factor XIIa, < 3.00. The Anticoagulation time with human vein blood (concentration in the blood 5 μM) fell in the range of 12 to 24 h.

As for `N=C(N)c1ccc(C=C2CCCCC(=Cc3ccc(C(=N)N)cc3)C2=O)cc1` [Pefabloc tPA/Xa, 2,7-bis(4-amidinobenzylidene)-cycloheptanone-(1)], the pKi on Factor VIIa is 3.85; on Factor XIIa, 6.44. In the assay with human vein blood (concentration in the blood 500 μM), this molecule displayed an Anticoagulation time of 7 to 10 h.

The values are drawn from US8129547B2, “Anticoagulation of human blood ex vivo” (priority 2006, dated 2012).
